This note sets out measurements from ChEMBL document CHEMBL1158343, “Synthesis, antimicrobial and antiviral evaluation of substituted imidazole derivatives” (Eur J Med Chem, 2009).

In brackets after ≈: the same amount, converted by molar mass. A value given as a limit tells only on which side of the number the result lay.

For this assay, the system named is Vaccinia virus. The assay can be described thus: Antiviral activity against Vaccinia virus infected in human HEL cells assessed as reduction in virus-induced cytopathogenicity after 3 days. The format is functional, organism-based. The settings on record: Orthopoxvirus vaccinia, 72 h. Background: Cytopathic effects are the visible damage that an infection or toxin causes in cultured cells.
For the compound `O=C(c1ccc([N+](=O)[O-])cc1)n1ccnc1-c1ccccc1[N+](=O)[O-]`, the EC50 (commonly the concentration giving half of the maximal effect) was over 100 µg/mL. Next, `O=C(c1ccccc1Br)n1ccnc1-c1ccccc1[N+](=O)[O-]`: over 100 µg/mL; `O=C(c1ccccc1Br)n1ccnc1-c1ccc([N+](=O)[O-])cc1`: over 100 µg/mL. Regarding `O=C(O)c1ccccc1-c1nccn1C(=O)c1ccc([N+](=O)[O-])cc1`, the EC50 is over 100 µg/mL. The result for `O=C(c1ccc([N+](=O)[O-])cc1)n1ccnc1-c1ccc([N+](=O)[O-])cc1` reads 4 µg/mL (≈ 11.8 µM).

On to `O=C(c1ccc([N+](=O)[O-])cc1)n1ccnc1-c1ccc(Cl)cc1`, for which the EC50 is 2 µg/mL (≈ 6.1 µM).

`O=C(c1ccc([N+](=O)[O-])cc1)n1ccnc1-c1ccccc1Cl`: the EC50 was over 100 µg/mL. Regarding `COc1ccc(-c2nccn2C(=O)c2ccc([N+](=O)[O-])cc2)cc1`, the EC50 is over 100 µg/mL. Take `O=C(c1ccccc1Br)n1ccnc1-c1ccccc1Cl`: the EC50 is over 100 µg/mL. The result for `O=C(c1ccc([N+](=O)[O-])cc1)n1ccnc1-c1cccc(Cl)c1` reads 45 µg/mL (≈ 137 µM).

For `O=C(c1ccccc1Br)n1ccnc1-c1cccc([N+](=O)[O-])c1`, the EC50 is over 100 µg/mL. The result for `COc1ccc(-c2nccn2C(=O)c2ccccc2Br)cc1` reads over 100 µg/mL.

Consider `O=C(c1ccc([N+](=O)[O-])cc1)n1ccnc1-c1cccc([N+](=O)[O-])c1`, for which the EC50 is over 100 µg/mL. Next, `O=C(c1ccccc1Br)n1ccnc1-c1ccc(Cl)cc1`: over 100 µg/mL; `O=c1[nH]c(=O)n([C@H]2C[C@H](O)[C@@H](CO)O2)cc1/C=C/Br` [BRIVUDINE]: 5 µg/mL (≈ 15 µM); `Nc1ccn(C[C@@H](CO)OCP(=O)(O)O)c(=O)n1.O.O` [CIDOFOVIR]: 7 µg/mL. For the compound `Nc1nc2c(ncn2COC(CO)CO)c(=O)[nH]1` [GANCICLOVIR], the EC50 is over 100 µg/mL. On to `NC(=O)c1ncn([C@@H]2O[C@H](CO)[C@@H](O)[C@H]2O)n1` [RIBAVIRIN], for which the EC50 was over 250 µg/mL.
